Target: FP receptor (Homo sapiens (Human), UniProt P43088)
Assay: In vitro test of inhibition of human FP receptor activity (PGF2α-induced calcium flux in FP-expressing CHEM1 cells)
Type: cell-based
Details: PGF2α 2 nM, some mean values of multiple determinations
Summary of the method: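 FP antagonism in FP-expressing CHEM1 cells loaded with Fluo-8. Compound preincubated 10 min at 37° C, then receptor stimulated with 2 nM (final) PGF2α in calcium-free Tyrode with 2 mM CaCl2.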

Chain of FP receptor (P43088 whole entry): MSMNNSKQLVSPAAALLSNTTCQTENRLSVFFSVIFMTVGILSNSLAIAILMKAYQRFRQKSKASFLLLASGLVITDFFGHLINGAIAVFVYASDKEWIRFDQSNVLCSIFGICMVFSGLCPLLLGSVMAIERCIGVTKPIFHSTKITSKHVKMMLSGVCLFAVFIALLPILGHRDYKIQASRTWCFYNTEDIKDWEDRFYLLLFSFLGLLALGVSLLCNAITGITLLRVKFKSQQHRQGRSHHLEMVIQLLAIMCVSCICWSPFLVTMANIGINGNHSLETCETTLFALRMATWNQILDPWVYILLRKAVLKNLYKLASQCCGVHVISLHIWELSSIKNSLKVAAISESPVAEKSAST

Structure (SMILES) | IC50
CCC1CCCN(c2nc3ccc(Br)cc3c(C(=O)NCC(CCC(=O)O)c3ccccc3OC(F)(F)F)c2C)C1 (single isomer, unassigned; (+)) [Example 208, (+)-5-[({6-Bromo-2-[3-ethylpiperidin-1-yl]-3-methylquinolin-4-yl}carbonyl)amino]-4-[2-(trifluoromethoxy)phenyl]pentanoic acid] | 1.4 nM
Cc1ccc(F)cc1C(CCC(=O)O)CNC(=O)c1c(C)c(N2CCCCC2)nc2ccc(Br)cc12 (racemic) [Example 147, (+/−)-5-({[6-Bromo-3-methyl-2-(piperidin-1-yl)quinolin-4-yl]carbonyl}amino)-4-(5-fluoro-2-methylphenyl)pentanoic acid] | 8 nM
Cc1c(N2CCCCC2)nc2ccc(Br)cc2c1C(=O)NCC(CCC(=O)O)c1cc(F)ccc1Cl (racemic) [Example 5, (+/−)-5-({[6-Bromo-3-methyl-2-(piperidin-1-yl)quinolin-4-yl]carbonyl}amino)-4-(2-chloro-5-fluorophenyl)pentanoic acid] | 9.4 nM
Cc1c(N2CCCC(F)(F)C2)nc2ccc(Br)cc2c1C(=O)NCC(CCC(=O)O)c1c(F)ccc(F)c1Cl (single isomer, unassigned; (-)) [Example 218, (−)-5-({[6-Bromo-2-(3,3-difluoropiperidin-1-yl)-3-methylquinolin-4-yl]carbonyl}amino)-4-(2-chloro-3,6-difluorophenyl)pentanoic acid] | 1.2 nM
Cc1c(N2CCCCC2)nc2ccc(Br)cc2c1C(=O)NCC(CCC(=O)O)c1c(F)cccc1C(F)(F)F (single isomer, unassigned; (-)) [Example 161, (−)-5-({[6-Bromo-3-methyl-2-(piperidin-1-yl)quinolin-4-yl]carbonyl}amino)-4-[2-fluoro-6-(trifluoromethyl)phenyl]pentanoic acid] | 1.4 nM
CCC1CCCN(c2nc3ccc(Br)cc3c(C(=O)NCC(CCC(=O)O)c3ccccc3OC(F)(F)F)c2C)C1 (single isomer, unassigned) [Example 206, 5-[({6-Bromo-2-[3-ethylpiperidin-1-yl]-3-methylquinolin-4-yl}carbonyl)amino]-4-[2-(trifluoromethoxy)phenyl]pentanoic acid] | 9.5 nM
Cc1c(N2CCCC(C)C2)nc2ccc(Br)cc2c1C(=O)NCC(CCC(=O)O)c1ccccc1C(F)(F)F (single isomer, unassigned; (-)) [Example 200, (−)-5-[({6-Bromo-3-methyl-2-[3-methylpiperidin-1-yl]quinolin-4-yl}carbonyl)amino]-4-[2-(trifluoromethyl)phenyl]pentanoic acid] | 17 nM
Cc1c(N2CCCCC2)nc2ccc(Br)cc2c1C(=O)NCC(CCC(=O)O)c1c(Cl)ccc(F)c1F (single isomer, unassigned; (+)) [Example 146, (+)-5-({[6-Bromo-3-methyl-2-(piperidin-1-yl)quinolin-4-yl]carbonyl}amino)-4-(6-chloro-2,3-difluorophenyl)pentanoic acid] | 22 nM
Cc1c(N2CCCC(F)C2)nc2ccc(Br)cc2c1C(=O)NCC(CCC(=O)O)c1c(Cl)ccc(Cl)c1Cl (single isomer, unassigned) [Example 222, 5-[({6-Bromo-2-[3-fluoropiperidin-1-yl]-3-methylquinolin-4-yl}carbonyl)amino]-4-(2,3,6-trichlorophenyl)pentanoic acid] | 3 nM
Cc1c(N2CCCCC2)nc2ccc(Br)cc2c1C(=O)NCC(CCC(=O)O)c1c(F)cccc1F (racemic) [Example 244, (+/−)-5-({[6-Bromo-3-methyl-2-(piperidin-1-yl)quinolin-4-yl]carbonyl}amino)-4-(2,6-difluorophenyl)pentanoic acid] | 12 nM
COc1ccccc1C(CCC(=O)O)CNC(=O)c1c(C)c(N2CCCC2)nc2ccc(Br)cc12 (single isomer, unassigned; (+)) [Example 237, (+)-5-({[6-Bromo-3-methyl-2-(pyrrolidin-1-yl)quinolin-4-yl]carbonyl}amino)-4-(2-methoxyphenyl)pentanoic acid] | 4.3 nM
Cc1c(N2CCCC(C)C2)nc2ccc(Br)cc2c1C(=O)NCC(CCC(=O)O)c1ccccc1Cl (single isomer, unassigned; (-)) [Example 49, (−)-5-[({6-Bromo-3-methyl-2-[3-methylpiperidin-1-yl]quinolin-4-yl}carbonyl)amino]-4-(2-chlorophenyl)pentanoic acid] | 14 nM
CCC1CCCN(c2nc3ccc(Br)cc3c(C(=O)NCC(CCC(=O)O)c3c(F)cccc3C(F)(F)F)c2C)C1 (centres unmarked) [Example 170, 5-[({6-Bromo-2-[3-ethylpiperidin-1-yl]-3-methylquinolin-4-yl}carbonyl)amino]-4-[2-fluoro-6-(trifluoromethyl)phenyl]pentanoic acid] | 2.7 nM
Cc1ccccc1C(CCC(=O)O)CNC(=O)c1c(C)c(N2CCCC(F)(F)C2)nc2ccc(Br)cc12 (single isomer, unassigned; (-)) [Example 230, (−)-5-({[6-Bromo-2-(3,3-difluoropiperidin-1-yl)-3-methylquinolin-4-yl]carbonyl}amino)-4-(2-methylphenyl)pentanoic acid] | 12 nM
Cc1c(N2CCCCC2)nc2ccc(Br)cc2c1C(=O)NCC(CCC(=O)O)c1ccccc1OC(F)(F)F (single isomer, unassigned; (+)) [Example 128, (+)-5-({[6-Bromo-3-methyl-2-(piperidin-1-yl)quinolin-4-yl]carbonyl}amino)-4-[2-(trifluoromethoxy)phenyl]pentanoic acid] | 3.8 nM
Cc1c(N2CCCC(F)C2)nc2ccc(Br)cc2c1C(=O)NCC(CCC(=O)O)c1c(Cl)ccc(Cl)c1Cl (single isomer, unassigned) [Example 224, 5-[({6-Bromo-2-[3-fluoropiperidin-1-yl]-3-methylquinolin-4-yl}carbonyl)amino]-4-(2,3,6-trichlorophenyl)pentanoic acid] | 38 nM
Cc1c(N2CCCCC2)nc2ccc(Br)cc2c1C(=O)NCC(CCC(=O)O)c1ccccc1OC(F)(F)F (racemic) [Example 126, (+/−)-5-({[6-Bromo-3-methyl-2-(piperidin-1-yl)quinolin-4-yl]carbonyl}amino)-4-[2-(trifluoromethoxy)phenyl]pentanoic acid] | 1.7 nM
Cc1c(N2CCC(F)(F)C2)nc2ccc(Br)cc2c1C(=O)NCC(CCC(=O)O)c1ccccc1Cl (racemic) [Example 37, (+/−)-5-({[6-Bromo-2-(3,3-difluoropyrrolidin-1-yl)-3-methylquinolin-4-yl]carbonyl}amino)-4-(2-chlorophenyl)pentanoic acid] | 22 nM
Cc1c(N2CCCC(C)C2)nc2ccc(Br)cc2c1C(=O)NCC(CCC(=O)O)c1ccccc1C(F)(F)F (centres unmarked) [Example 125, 5-[({6-Bromo-3-methyl-2-[3-methylpiperidin-1-yl]quinolin-4-yl}carbonyl)amino]-4-[2-(trifluoromethyl)phenyl]pentanoic acid] | 5.2 nM
Cc1c(N2CCCC(F)(F)C2)nc2ccc(Br)cc2c1C(=O)NCC(CCC(=O)O)c1ccccc1Cl (single isomer, unassigned; (-)) [Example 51, (−)-5-({[6-Bromo-2-(3,3-difluoropiperidin-1-yl)-3-methylquinolin-4-yl]carbonyl}amino)-4-(2-chlorophenyl)pentanoic acid] | 13 nM
